# Entries after “also recorded” stand apart in the source; their conditions may differ.
# Experiments:
# [1] = test system: A549 (lung) tumors; test: A549 (lung) human tumor xenograft in nude mice; type: in vivo, NCr nude (nu/nu) female mice; conditions: for Increase in tumor volume at 35 days normalized to tumor volume at start of drug treatment: vehicle approximately 7-fold; for %T/C (mean tumor volume treated vs. control ×100): A549 xenografts
# From the text: (§1) A nude mouse/human carcinoma model was used to examine the effect of tubulin inhibitors on tumor growth and animal survival. Groups of immune deficient (nude) mice were implanted subcutaneously with suspensions of the human tumor lines A549 (lung) and SW480 (colon). When palpable tumors appeared and were of a preselected volume (approximately 40–150 mm^3), animals were subdivided into various treatment groups such that the variation in mean tumor volume of each group was within 10%. The animals were then treated daily with either control vehicle or Compound 1 administered by intraperitonel injection. Twice weekly, the volume of the tumors in each animal in each group was measured to gather information on tumor growth (volume) as a function of time. Systemic toxicity was assessed by measuring individual animal body weights, and toxicity was evaluated by examination of differences in body weight gain as a function of time. Tumor volumes and body weights were monitored for up to 35 days after the beginning of treatment.
# Cell Lines: Human tumor lines A549 (lung) and SW480 (colon) were grown in cell culture medium (F-11) containing 10% Fetal Bovine Serum (FBS). The cells were kept at 37° C. in a humidified 5% CO2/air incubator. Antibiotics were not added to the medium.
# NCr nude (nu/nu) female mice, age 3–4 weeks, were purchased from Taconic (Germantown, N.Y.). The animals were housed ten per cage in sterile filter-topped cages in ventilated cage racks and Microisolator™ cages. Upon arrival, they were quarantined for at least four working days before use. Temperature was maintained at 72±5° F. (19–24° C.) and relative humidity at 35–70%, and a 12-hour light/dark cycle was used. The mice were fed sterile, autoclavable, certified, Purina rodent chow ad libitum. Drinking water was also autoclaved.
# After the animals were released from quarantine, the mice were injected subcutaneously in the right flank with either 5×10^6 A549 cells or 5×10^6 SW480 cells in complete medium at an injection volume of 0.1 ml. Tumor dimensions and body weights were measured two times per week. Vernier calipers were used to measure tumors in two planes, and tumor volume (V) was calculated as follows: V=(xy^2)/2,
# The test articles were administered intraperitoneally generally at a dose level of 10 mg/kg. When the solubility of a molecule of the invention was relatively low, we used relatively higher levels of organic co-solvents for preparation of the dosing solution. The “vehicle” of the invention comprised of 7.1% ethanol/35.8% PEG400/57.1% phosphate buffer (v/v/v).
# When the tumor volumes reached a predetermined size (mean tumor volume between about 40–150 mm^3), animals were added randomly to treatment groups of 12 mice each as follows: Animals were treated daily with the vehicle or Compound 1 (10 mg/kg), or with the positive control drug (Taxol) administered by intraperitoneal injection at the maximum tolerated dose of 20 mg/kg every fourth day, on Days 1, 4, 7, and 10.
# The tumor volumes of the animals were monitored for evidence of shrinkage or growth delay for a period of up to 35 days after the start of treatment. Response to treatment was measured in two ways, depending on the tumor response to treatment. The first was the optimum T/C (%), calculated as follows: For each day the tumors were measured, the changes in median tumor volume (V) for each treated (T) and control (C) group were determined by subtracting the […] tumor volume on the first day of treatment (Day 0) from the median tumor volume on the specific observation day. These values were used to express a percent difference in size, [% T/C=(T/C)×100]. The minimum value is designated the optimum response to treatment. A value of 42% or less is considered active by National Cancer Institute (NCI) standards. […]
# [2] = test system: A549 cells; test: Bromodeoxyuridine (BrdU) proliferation assay; type: cell-based, human; conditions: for IC50: Homo sapiens, A549, 48 h, BrdU ELISA 48 hours after addition of compound, tested 0.03-10 uM, cell line not given (A549 method; SW-480 and MDA-MB-231 also used), read-out: Assay Result (IC50μM); for Activity ranking: most active compounds of the invention / Activity ranking: particularly active examples of the compounds of the invention: antiproliferative activity
# Procedure: In order to determine the antiproliferative activity of microtubule inhibitors, A549 cells were plated in 96 well plates at 2000 cells/well 24 hours prior to the addition of a compound of the invention in 80 ul growth media (F12K, 10% FBS, Pen/Strep). Prior to addition to cells, compounds were solubilized in 100% DMSO to 5 mM and serially diluted in 6 semi-log steps in 100% DMSO. The diluted compounds were added to cells by two 15.8-fold dilution steps, the first being a dilution into a 23% ethanol/H2O mixture and the second being a dilution into growth media. Finally, these dilutions were followed by a 1:1 dilution onto cells. The resulting final solvent concentration was 0.2% DMSO/0.75% ethanol. Compounds were tested at final concentrations of 10, 3, 1, 0.3, 0.1 and 0.03 uM. Forty-eight hours after the addition of compound, the effects on cellular proliferation were measured using a cell proliferation BrdU ELISA (Roche Molecular Biochemicals, Cat.#1 669 915).
# [3] = test system: SW480 tumors; test: SW480 (colon) human tumor xenograft in nude mice; type: in vivo, NCr nude (nu/nu) female mice; conditions: 10 mg/kg daily intraperitoneal
# From the text: as §1, with “treatment. […]” for “treatment.”
# After the animals were released from quarantine, the mice were injected subcutaneously in the right flank with either 5×10^6 A549 cells or 5×10^6 SW480 cells in complete medium at an injection volume of 0.1 ml. Tumor dimensions and body weights were measured two times per week. […]
# [4] = test system: MAP-rich tubulin protein from bovine brain; test: Tubulin polymerization turbidity assay (A340 over time); type: biochemical
# Procedure: FIG. 1. Tubulin polymerization inhibitory activity of the compounds of the invention was assayed by following the turbidity of a tubulin-containing solution over time. Polymerization of tubulin generates microtubules, the presence of which increases the absorbance of the assay solution over time. Effective inhibition manifests as a reduction of rate of absorbance increase at 340 nanometers. (a) 10 μM of compounds 19, 39, 43, 54 and 62, as well as 10 μM nocodazole as a positive control and DMSO as a negative control. (b) 10 μM of compounds 1, 88, 95, and 54, as well as 10 μM as well a positive controls 1 and 2 and DMSO as a negative control. (c) 0.4, 2.0 and 10 μM compound 54 versus 0.4, 2.0 and 10 μM nocodazole as a positive control and DMSO as a negative control.
# Measurement of the tubulin polymerization can be achieved using known methodologies. For example, assays for tubulin polymerization may be performed using a kit from Cytoskeleton (Denver, Colo.) and as described by Tahir, S. K., et al, (2001) Cancer Res., 61:5480–5.
# The assay measures tubulin polymerization as an increase in turbidity (A340) over time. Assays for tubulin polymerization were performed using a kit from Cytoskeleton (Denver, Colo.) and as described by Tahir, S. K., et al, (2001) Cancer Res., 61: 5480–5, incorporated herein by reference, and as described below.
# To determine the ability of the compounds to inhibit microtubule polymerization in vitro, the following protocol was followed: (i) 70 μl ice-cold MAP-rich tubulin protein from bovine brain (1.5 mg/ml final concentration) was added to polymerization buffer (80 mM PIPES pH6.8, 1 mM EGTA, 1 mM MgCl2, 1 mM GTP) in a quartz microcuvette; (ii) 0.7 μl of DMSO or 100X stock of control (nocodazole) or test compound (thienopyrimidine) in DMSO were added to the cuvette; (iii) the contents were mixed by pipefting gently; (iv) the polymerization reaction was initiated by placing the cuvette in pre-warmed (37° C.) cuvette holder in Beckman spectrophotometer; (v) the absorbance was monitored at 340 nm at 30 second intervals for 20 minutes. Tubulin polymerization result in increased turbidity in the reaction solution, which is registered as an increase in absorbance at 340 nm. Inhibitors of tubulin polymerization are detected by a reduction in the rate, the initial slope, and/or extent of the turbidity change (i.e., max. absorbance at 340 nm) in plots of ΔA340 versus time.
# [5] = 10 μM compound, FIG. 1 (a), (b)
Compound,IC50 [2],Activity ranking: most active compounds of the invention [2],Activity ranking: particularly active examples of the compounds of the invention [2],"Inhibition of tubulin polymerization (reduction of rate of absorbance increase at 340 nanometers) [4, 5]",other results
S=C(NNc1ncnc2cc(-c3ccccc3)sc12)Nc1ccccc1 [Compound 1],0.664 µM,most active,particularly active,Inhibition activity is observed,"Increase in tumor volume at 35 days normalized to tumor volume at start of drug treatment ([1]; A549 xenograft, 10 mg/kg daily intraperitoneal): 4 fold; Mean tumor volume after 27 days of treatment ([1]; A549 xenograft, 10 mg/kg daily, vehicle control 346.9±164.7 mm^3): 223.8±164.1 mm^3; Effect on tumor growth ([1]; A549 xenograft, Compound 1 10 mg/kg daily intraperitoneal, 10 mg/kg): slowed tumor growth substantially; also recorded: substantial suppression of tumor growth; %T/C (mean tumor volume treated vs. control ×100) ([1]; 10 mg/kg daily intraperitoneal): 65%; Effect on tumor size [3]: did not result in a reduced tumor size; Tumor volume ([3]; controls 677.9±574.3 mm^3): 647.7±500.6 mm^3"
S=C(NNc1ncnc2cc(-c3ccccc3)sc12)NC1CC1 [Compound 19],0.089 µM,most active,particularly active,Inhibition activity is observed,–
Cc1cccc(-c2cc3ncnc(NNC(=S)NC4CC4)c3s2)c1 [Compound 39],0.039 µM,most active,particularly active,Inhibition activity is observed,–
S=C(NNc1ncnc2cc(-c3ccccc3Cl)sc12)NC1CC1 [Compound 43],0.438 µM,most active,particularly active,Inhibition activity is observed,–
Cc1cc(C)cc(-c2cc3ncnc(NNC(=S)NC4CC4)c3s2)c1 [Compound 54],0.016 µM,most active,particularly active,Inhibition activity is observed,"Inhibition of tubulin polymerization (reduction of rate of absorbance increase at 340 nanometers) ([4]; 0.4, 2.0 and 10 μM, FIG. 1 (c)): Inhibition activity is observed"
S=C(NCC1CC1)NNc1ncnc2cc(-c3ccccc3)sc12 [Compound 62],0.228 µM,most active,particularly active,Inhibition activity is observed,–
COCCNC(=S)NNc1ncnc2cc(-c3cccc(C)c3)sc12 [Compound 88],0.06 µM,most active,particularly active,Inhibition activity is observed,–
COCCNC(=S)NNc1ncnc2cc(-c3ccccc3Cl)sc12 [Compound 95],1.47 µM,–,particularly active,Inhibition activity is observed,–
"CC(=O)O[C@H]1C(=O)[C@@]2(C)[C@H]([C@H](OC(=O)c3ccccc3)[C@]3(O)C[C@H](OC(=O)[C@H](O)[C@@H](NC(=O)c4ccccc4)c4ccccc4)C(C)=C1C3(C)C)[C@]1(OC(C)=O)CO[C@@H]1C[C@@H]2O [Taxol, reference compound]",–,–,–,–,"Increase in tumor volume at 35 days normalized to tumor volume at start of drug treatment ([1]; A549 xenograft, 20 mg/kg intraperitoneal every fourth day (Days 1, 4, 7, 10)): 4 fold; %T/C (mean tumor volume treated vs. control ×100) ([1]; 20 mg/kg intraperitoneal every fourth day): 59%"
"COC(=O)Nc1nc2ccc(C(=O)c3cccs3)cc2[nH]1 [nocodazole, reference compound]",–,–,–,Inhibition activity is observed,"Inhibition of tubulin polymerization (reduction of rate of absorbance increase at 340 nanometers) ([4]; 0.4, 2.0 and 10 μM, FIG. 1 (c)): Inhibition activity is observed"
